From patent US12661348B2, “Systemic formulation of a pyridinone derivate for TG2-related diseases” (Dr. Falk Pharma GmbH, priority 2020, dated 2026) come the findings set out here.

Data set [1] can be described thus: Pharmacokinetic in the C57BL/6-mouse. It counts as in vivo. The settings on record: oral suspension. On the procedure:
The study serves to describe the pharmacokinetics of compound of formula (I) in the C57BL/6-mouse. The dosage was analogous to the dosage in the STAM-model (example 3) or in the UUO-model (example 2) in order to ensure the estimation of the systemic exposition in these models and to correlate the pharmacokinetic data with the efficacy data.
Groups of 12 C57BL/6-mice were treated with three different dosages of compound of formula (I) over a time period of 7 days: 100 mg/kg body weight, 300 mg/kg body weight, and 1000 mg/kg body weight. The daily dosage was administered orally as a suspension in two parts at intervals of 8 hours. On day 7 of treatment three different blood samples per animal were collected. The time points in the group were distributed in such a way that the 24 h-profile was covered with in total 12 different time points (3 animals per time point).
The determination of compound of formula (I) in the blood plasma was performed by means of a previously validated HLPC-MS/MS method.

Data set [2] has as its system UUO-model in the C57BL/6-mouse. The data set is described as follows: Unilateral ureteral obstruction model (UUO-model) for nephritic fibrosis. It counts as in vivo. As to conditions: 100, 300, 1000 mg/kg body weight daily, oral suspension, two weeks. The source says: The anti-fibrotic effect of (S,E)-methyl-7-(1-(2-(2-ethylbutylamino)-2-oxoethyl)-2-oxo-1,2-dihydro-pyridin-3-ylamino)-6-(1-methyl-1H-imidazole-5-carboxamido)-7-oxohept-2-enoate (compound of formula (I)) in the kidney was investigated in an UUO-model in the C57BL/6-mouse. In a UUO-model, in one of the kidneys fibrosis is induced by ligation of one ureter. The other kidney remains functional. The pathophysiology of the UUO-model resembles the chronic nephropathy in humane (Chronic Kidney Disease, CKD).
Groups of 8 UUO-mice were treated directly after ligation of the ureter over a time period of two weeks with three different dosages of said compound: 100 mg/kg body weight, 300 mg/kg body weight, and 1000 mg/kg body weight. The daily dosage was administered orally as a suspension at intervals of 8 hours. In a control group, the UUO-mice were treated in same way but merely with the vehicle methyl cellulose. After the end of the treatment, the histopathological investigation of the kidney tissue as well as the determination of the amount of hydroxyproline in the kidney was performed. […]

Data set [3] can be described thus: Saturation solubility, pH-range 1 to 6.8, HPLC/UV. It counts as physicochemical. The settings on record: pH=6.8 (small intestine) compared with pH~1.
Another data set deals with STAM-model and UUO-model. The data set is described as follows: Dose-activity-relationship in STAM-model and UUO-model. In kind it is in vivo, C57BL/6-mouse. The source says:
The reduction of the fibrotic area in the tissue in comparison to the untreated control animals can be considered as a measure for the anti-fibrotic effect of compound of formula (I) in STAM-model as well as in the UUO-model. For the STAM- and UUO-model the anti-fibrotic effect in dependence of the dose or in dependence of the exposure (Plasma Cmax or Plasma-AUC) are depicted in FIG. 5.

The test system of data set [4] is fibrotic liver or kidney diseases in human. The data set is described as follows: Correlation of the anti-fibrotic effect in the animal model with the human pharmacokinetic. In kind it is in vivo. The settings on record: from fibrotic area versus Cmax or AUC. On the procedure: A comparison of the systemic exposure (Cmax, AUC) of (5,E)-methyl-7-(1-(2-(2-ethylbutylamino)-2-oxoethyl)-2-oxo-1,2-dihydro-pyridin-3-ylamino)-6-(1-methyl-1H-imidazole-5-carboxamido)-7-oxohept-2-enoate in dosage effective in the animal experiments with the systemic exposition which is achieved in human allows an estimation of the potential effective dose range.
In addition, the Cmax or AUC being achieved in human by the dosage of 10, 20, and 50 mg compound of formula (I) is shown.

Data set [5] deals with STAM-model in the C57BL/6-mouse. Briefly: Stelic animal model (STAM-model) for non-alcoholic steatohepatitis. It counts as in vivo. On the procedure: The anti-fibrotic effect of compound of formula (I) in the liver was investigated in a STAM-model for non-alcoholic steatohepatitis. This model bases on the induction of a chronical fibrotic inflammation of the liver by means of the combination of a chemical noxin (Streptozotocin) and a fat-containing diet in the C57BL/6-mouse. The pathology is similar to the described NASH in human.
Groups of 8 STAM-mice were treated directly over a time period of two weeks with three different dosages of said compound: 100 mg/kg body weight, 300 mg/kg body weight, and 1000 mg/kg body weight. The daily dosage was administered orally as a suspension in two parts at intervals of 8 hours. In a control group, the STAM-mice were treated in same way but merely with the vehicle methyl cellulose. After the end of the treatment, a measurement of the biochemical parameter in the Plasma and after dissection of the animals a histopathological investigation for the liver, the determination of the fat content of the liver as well as the determination of the expression of inflammation and fibrosis marker was performed.

Take `CCC(CC)CNC(=O)Cn1cccc(NC(=O)[C@H](CC/C=C/C(=O)OC)NC(=O)c2cncn2C)c1=O` [compound of formula (I), (S,E)-methyl-7-(1-(2-(2-ethylbutylamino)-2-oxoethyl)-2-oxo-1,2-dihydro-pyridin-3-ylamino)-6-(1-methyl-1H-imidazole-5-carboxamido)-7-oxohept-2-enoate]: the “bioavailability in the mouse model” value in data set [1] is given as “measurable”. Moreover, the “hydroxyproline content in the kidney” value in data set [2] is given as “remained unaffected”. Moreover, the “fibrotic area of the kidney” value in data set [2] (versus vehicle control) is “significant, marked, dosage dependent reduction”. For the same compound, the saturation solubility result in data set [3] was “much lower”. The “anti-fibrotic effect in dependence of the exposure in plasma” value with STAM-model and UUO-model (Plasma Cmax or Plasma-AUC) is listed as “almost linear correlation”. Further, the “anti-fibrotic effect in STAM-model versus UUO-model” value in the data set with STAM-model and UUO-model (reduction of the fibrotic area versus control, liver and kidney) was “the same anti-fibrotic effect”. Besides, in data set [4], the “human dosage at which the anti-fibrotic effect shown in the animal model can be achieved” value is on record as 20 mg. Moreover, the liver histology result in data set [5] (100, 300, 1000 mg/kg body weight daily, oral suspension in two parts, two weeks) was “significant, dosage dependent improvement”. The “fibrotic area in the liver” value in data set [5] (100, 300, 1000 mg/kg, significant in the middle and high dosage group) is “marked, dosage dependent reduction”. In data set [5] (STAM mice), the liver inflammation entry is “dose-dependent and significant reduction”. Also, the “fat content in the liver” value in data set [5] (STAM-mice, oral, two weeks) is recorded as “no influence”. The “reduction of the fibrosis compared with positive control Telmisartan” value in data set [5] (high dosage group, comparison with historical data) is reported as “lay in the area of Telmisartan”. Also, the “NAFLD Activity Score (NAS)” value in data set [5] (middle and high dosage group (300, 1000 mg/kg), mainly reduction of inflammation and ballooning) was “reduced in the middle and high dosage group”.
